Like-named read-outs stand apart in the source and are kept apart here.
Legend:
HCK kinase = molecular target: T1, HCK kinase (Homo sapiens, UniProt P08631); test: HCK activity inhibition, radioactive kinase assay (Reaction Biology Corp); type: biochemical
T1 construct: purchased Reaction Biology Corp
Experimental: HCK activity inhibition efficiency for the inhibitors. Inhibiting efficiency is performed in Reaction Biology with Corp P32 radioactive kinase assay, comparing compounds of the invention with dasatinib for HCK, Bcr-Abl and other binding kinases identified in the reference. Briefly, HCK kinase was delivered into the substrate solution and gently mixed, then compounds in DMSO were added into the kinase reaction mixture by Acoustic technology (Echo550; Nano liter range), and incubated for 20 minutes at room temperature. 33P-ATP was delivered into the reaction mixture to initiate the reaction. The kinase reaction was incubated for 2 hours at room temperature. Reactions were spotted onto P81 ion exchange paper, and detected kinase activity was measured by filter-binding method.

HK2 cells = test: mRNA expression of fibrosis markers in HK2 cells; type: cell-based
[1] = tested on: SMAD3 transcriptional activity in HEK293 cells; test: SMAD3 transcriptional activity in HEK293 cells; type: cell-based
murine UUO model = test: Murine unilateral ureteral obstruction (UUO) kidney fibrosis model; type: in vivo, Male C57BL/6 mice; conditions: 25 mg/kg by gavage daily, 7-days post-UUO
Experimental: Inhibiting Hck activity in vivo with Example 2 attenuates kidney fibrosis in murine UUO model: Unilateral ureteral obstruction (UUO) was performed on Male C57BL/6 mice (˜10 weeks age). Mice were perfused 7-days post UUO. The inhibitory activity of the compounds of the invention as compared to controls was determined. The UUO mice were treated with Example 2 at 25 mg/kg or vehicle (n=5) by gavage daily started one day prior to the surgery to 7-days post-surgery. […] Compounds of the invention are promising HCK-specific inhibitors.
FIG. 1 depicts mRNA—levels of pro-fibrotic markers at 7-days post-UUO by RT-PCR (normalized to GAPDH), from whole cortices of control and UUO kidneys of Example 2 and PBS-fed animals. […] Values are mean±SEM. *P<0.05.

Src-family kinase (SFK) = test: Inhibition of all Src-family kinase (SFK) activity; type: biochemical; conditions: FIG. 3
Cytotoxicity = type: cell-based; conditions: at 50 uM (data not shown)
[2] = compared with vehicle-treated mice

T1 sequence (P08631 whole entry): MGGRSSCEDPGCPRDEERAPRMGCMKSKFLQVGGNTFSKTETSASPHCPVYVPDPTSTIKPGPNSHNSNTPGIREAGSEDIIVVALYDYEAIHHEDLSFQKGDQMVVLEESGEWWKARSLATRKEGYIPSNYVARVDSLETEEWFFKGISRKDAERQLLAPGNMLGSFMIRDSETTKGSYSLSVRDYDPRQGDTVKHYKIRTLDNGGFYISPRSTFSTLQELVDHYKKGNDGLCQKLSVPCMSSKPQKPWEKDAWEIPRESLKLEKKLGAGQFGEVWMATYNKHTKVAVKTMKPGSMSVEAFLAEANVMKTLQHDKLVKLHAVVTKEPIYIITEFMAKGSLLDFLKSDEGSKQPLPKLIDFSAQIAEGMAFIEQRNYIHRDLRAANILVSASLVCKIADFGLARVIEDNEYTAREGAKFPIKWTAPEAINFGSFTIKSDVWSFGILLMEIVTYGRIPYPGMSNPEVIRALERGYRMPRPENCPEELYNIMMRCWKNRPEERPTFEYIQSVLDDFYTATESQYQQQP

IC50 (HCK kinase; HCK, read-out: IC50): < 20 µM
IC50 (HCK kinase; radioactive kinase assay, 33P-ATP, 2 hours at room temperature, read-out: IC50 for HCK activity): ~12 µM
selectivity among Src-family kinases (Src-family kinase (SFK)): selectivity to HCK inhibition
SMILES: Clc1cc(Cl)c2c(c1)C=C(C1=NOB(c3ccccc3)N1)C(c1ccccc1)O2 (centres unmarked) [Example 2, 3-(6,8-dichloro-2-phenyl-2H-chromen-3-yl)-5-phenyl-4,5-dihydro-1,2,4,5-oxadiazaborole]
mRNA expression of fibrosis markers (HK2 cells; FIG. 4): reduced
mRNA expression of COL1A1 (HK2 cells; HK2 cells): reduced
mRNA expression of FN1 (HK2 cells; HK2 cells): reduced
mRNA expression of SNAIL (HK2 cells; HK2 cells): reduced
SMAD3 transcriptional activity [1]: reduced
renal fibrosis in the UUO kidneys (Masson and collagen I staining) (murine UUO model): reduced renal fibrosis
RTEC injury in the UUO kidney (H&E staining) (murine UUO model; compared to vehicle-treated mice): reduced RTEC injury
expression of Col1a1 in the UUO kidney (murine UUO model; [2]): significantly decreased
expression of FSP-1 in the UUO kidney (murine UUO model; [2]): significantly decreased
expression of Fibronectin in the UUO kidney (murine UUO model; [2]): significantly decreased
cytotoxicity (Cytotoxicity): no cytotoxicity
